Laboratory results published in ChEMBL document CHEMBL1201862, “PubChem BioAssay data set” (2004).
Calls of active or inactive are those of the source.

Experiments:
Coagulation factor XII = target: T1, Coagulation factor XII (Homo sapiens, UniProt P00748); format: functional;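 also: activated factor XIIa alpha cleaving a fluorogenic AMC peptide substrate; inhibitor potency from loss of enzyme activity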
T1 sequence (P00748 whole entry): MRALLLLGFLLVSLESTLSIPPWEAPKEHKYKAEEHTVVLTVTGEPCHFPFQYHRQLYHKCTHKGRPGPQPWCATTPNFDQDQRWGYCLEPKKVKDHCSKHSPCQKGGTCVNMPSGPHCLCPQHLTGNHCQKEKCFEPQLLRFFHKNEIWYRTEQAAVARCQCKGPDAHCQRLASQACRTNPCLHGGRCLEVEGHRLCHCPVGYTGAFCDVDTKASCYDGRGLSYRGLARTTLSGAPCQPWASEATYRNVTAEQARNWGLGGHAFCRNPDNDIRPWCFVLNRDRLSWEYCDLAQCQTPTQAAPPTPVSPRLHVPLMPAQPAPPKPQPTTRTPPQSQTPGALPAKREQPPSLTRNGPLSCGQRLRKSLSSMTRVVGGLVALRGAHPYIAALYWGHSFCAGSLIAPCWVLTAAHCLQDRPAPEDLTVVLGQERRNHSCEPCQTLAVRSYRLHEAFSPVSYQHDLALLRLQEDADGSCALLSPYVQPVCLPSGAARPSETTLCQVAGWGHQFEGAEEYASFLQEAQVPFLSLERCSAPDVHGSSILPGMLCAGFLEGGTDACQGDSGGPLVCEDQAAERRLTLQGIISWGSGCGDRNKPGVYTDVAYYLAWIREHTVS

Prothrombin = Prothrombin (Homo sapiens, UniProt P00734); assay: Thrombin 1536 HTS Dose Response Confirmation. [Related pubchem assays: 1046 (Thrombin 1536 HTS; hits were confirmed in this assay)]; format: functional
[1] = NIH-3T3 fibroblast cytotoxicity, dose response, cytotoxicity control, cell-based, fluorescence, Alamar Blue, secondary assay (AID 2327); format: functional;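 also: NIH-3T3 mouse fibroblasts cultured with fluconazole at 8 µg/mL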
[2] = NIH3T3 cell viability loss – ATP luminescence, mouse fibroblasts, counter-screen, dose response (AID 2010); format: functional, cell-based;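 also: cells exposed to compound for about 90 hours before reading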
Streptococcus = assay: GAS UMAA2166 growth inhibition – luminescence, BacTiterGlo, counter-screen for streptokinase expression inhibitor project, dose response (AID 1915); format: functional, organism-based;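 also: potency for reduction of bacterial viability or growth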
[3] = target: T2, Short transient receptor potential channel 4 (Mus musculus, UniProt Q9QUQ5); assay: block of DAMGO-driven TRPC4 calcium entry – cell-based, HEK293 TRPC4/mu-opioid, Fluo-4 calcium, dose response (AID 434942); format: functional;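 also: potency of inhibitors blocking the TRPC4 calcium response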
T2 sequence (Q9QUQ5 whole entry): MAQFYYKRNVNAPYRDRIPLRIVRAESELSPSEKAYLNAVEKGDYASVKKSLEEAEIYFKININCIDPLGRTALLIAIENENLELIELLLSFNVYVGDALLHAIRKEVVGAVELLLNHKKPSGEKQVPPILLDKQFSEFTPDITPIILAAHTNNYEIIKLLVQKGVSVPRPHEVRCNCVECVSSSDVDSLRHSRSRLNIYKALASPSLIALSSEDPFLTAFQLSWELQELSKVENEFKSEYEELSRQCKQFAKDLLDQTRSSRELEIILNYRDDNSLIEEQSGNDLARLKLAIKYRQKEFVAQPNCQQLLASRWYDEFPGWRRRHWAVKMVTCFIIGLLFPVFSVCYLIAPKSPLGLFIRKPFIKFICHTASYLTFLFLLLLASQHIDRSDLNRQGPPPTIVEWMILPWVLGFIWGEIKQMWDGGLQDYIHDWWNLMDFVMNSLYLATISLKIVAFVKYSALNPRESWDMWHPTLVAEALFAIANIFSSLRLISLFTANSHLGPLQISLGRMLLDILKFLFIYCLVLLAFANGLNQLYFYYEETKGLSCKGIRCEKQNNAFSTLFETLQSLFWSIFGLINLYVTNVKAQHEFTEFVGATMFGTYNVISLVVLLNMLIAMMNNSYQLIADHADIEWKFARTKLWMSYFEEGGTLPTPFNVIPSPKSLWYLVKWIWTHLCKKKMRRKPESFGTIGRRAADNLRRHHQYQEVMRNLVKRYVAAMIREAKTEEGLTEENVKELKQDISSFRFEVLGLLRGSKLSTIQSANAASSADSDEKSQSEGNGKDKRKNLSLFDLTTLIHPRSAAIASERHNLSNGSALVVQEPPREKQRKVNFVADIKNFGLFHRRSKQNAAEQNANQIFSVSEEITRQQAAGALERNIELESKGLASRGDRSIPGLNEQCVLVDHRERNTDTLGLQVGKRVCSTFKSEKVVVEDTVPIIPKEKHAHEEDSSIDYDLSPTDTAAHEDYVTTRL

[4] = Trypanosoma cruzi growth suppression in host cells – NIH3T3 host cells, beta-gal luminescence, confirmation (AID 2044); format: functional, cell-based;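 also: intracellular parasites grown in NIH/3T3 mouse fibroblasts as host cells; luminescent beta-galactosidase reporter signal from transgenic T. cruzi replicating inside host cells; inhibitors lower the luminescence signal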
Vero [5] = assay: cells; format: functional; details: Chlorocebus sabaeus
[6] = fluconazole-exposed Candida albicans growth modulators – fluorescence, retest, confirmation (AID 2467); format: functional, cell-based
[7] = test system: Streptococcus sp. 'group A'; assay: Streptococcus pyogenes SK(-)GAS viability under kanamycin – luminescence, BacTiterGlo, confirmation, counter-screen for streptokinase expression inhibitor project, dose response (AID 1900); format: functional, organism-based
H9c2 = assay: cells; format: functional, cell-based; details: Rattus norvegicus, H9c2, Myocardium;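 also: confirmatory concentration-response retest of ultra-high-throughput screening hits for modulation of myocardial damage; cell death induced by hydrogen peroxide oxidative stress; compound pretreatment for 60 min then peroxide exposure for 2 h; potency is for protecting the cells against peroxide damage rather than for killing them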
Cytochrome P450 3A4 [8] = target: T3, Cytochrome P450 3A4 (Homo sapiens, UniProt P08684)
T3 sequence (P08684 whole entry): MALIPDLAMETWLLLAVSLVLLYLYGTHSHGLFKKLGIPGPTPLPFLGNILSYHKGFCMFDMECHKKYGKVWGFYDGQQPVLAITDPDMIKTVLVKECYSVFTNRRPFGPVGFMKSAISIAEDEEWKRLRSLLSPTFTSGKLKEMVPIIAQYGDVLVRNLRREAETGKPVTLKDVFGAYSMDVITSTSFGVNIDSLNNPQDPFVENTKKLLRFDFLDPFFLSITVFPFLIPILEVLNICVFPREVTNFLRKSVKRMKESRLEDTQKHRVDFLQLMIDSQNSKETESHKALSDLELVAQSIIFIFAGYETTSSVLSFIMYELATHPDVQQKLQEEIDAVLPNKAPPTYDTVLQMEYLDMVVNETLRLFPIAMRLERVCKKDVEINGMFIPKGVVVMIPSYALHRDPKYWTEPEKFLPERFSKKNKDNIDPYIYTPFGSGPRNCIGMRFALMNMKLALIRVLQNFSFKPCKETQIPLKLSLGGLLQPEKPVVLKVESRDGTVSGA

Large T antigen = Large T antigen (Simian virus 40, UniProt P03070); format: functional, Betapolyomavirus macacae;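 also: Confirmatory-stage PubChem screen for compounds that inhibit SV40 T antigen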
Chain of Large T antigen (P03070 whole entry): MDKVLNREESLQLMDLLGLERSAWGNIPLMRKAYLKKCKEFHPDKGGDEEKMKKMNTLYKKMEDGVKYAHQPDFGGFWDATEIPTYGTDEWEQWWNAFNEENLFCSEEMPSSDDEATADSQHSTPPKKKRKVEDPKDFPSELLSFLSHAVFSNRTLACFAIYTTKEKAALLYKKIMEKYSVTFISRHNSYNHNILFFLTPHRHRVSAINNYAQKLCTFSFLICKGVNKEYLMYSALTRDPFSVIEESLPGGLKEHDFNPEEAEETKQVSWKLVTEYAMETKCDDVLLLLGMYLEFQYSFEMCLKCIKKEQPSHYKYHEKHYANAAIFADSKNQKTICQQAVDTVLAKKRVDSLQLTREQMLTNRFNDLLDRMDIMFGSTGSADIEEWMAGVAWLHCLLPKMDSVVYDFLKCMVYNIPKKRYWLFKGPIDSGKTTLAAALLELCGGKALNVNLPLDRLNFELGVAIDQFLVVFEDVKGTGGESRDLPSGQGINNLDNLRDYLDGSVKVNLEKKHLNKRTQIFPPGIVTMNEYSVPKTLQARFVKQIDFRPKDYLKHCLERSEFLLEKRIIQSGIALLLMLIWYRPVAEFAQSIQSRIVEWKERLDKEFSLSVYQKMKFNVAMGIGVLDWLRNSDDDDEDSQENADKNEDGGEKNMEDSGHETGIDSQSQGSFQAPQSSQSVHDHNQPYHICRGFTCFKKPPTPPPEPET

Cytochrome P450 2D6 = Cytochrome P450 2D6 (Homo sapiens, UniProt P10635);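 also: CYP2D6 member of a cytochrome P450 panel assay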
Chain of Cytochrome P450 2D6 (P10635 whole entry): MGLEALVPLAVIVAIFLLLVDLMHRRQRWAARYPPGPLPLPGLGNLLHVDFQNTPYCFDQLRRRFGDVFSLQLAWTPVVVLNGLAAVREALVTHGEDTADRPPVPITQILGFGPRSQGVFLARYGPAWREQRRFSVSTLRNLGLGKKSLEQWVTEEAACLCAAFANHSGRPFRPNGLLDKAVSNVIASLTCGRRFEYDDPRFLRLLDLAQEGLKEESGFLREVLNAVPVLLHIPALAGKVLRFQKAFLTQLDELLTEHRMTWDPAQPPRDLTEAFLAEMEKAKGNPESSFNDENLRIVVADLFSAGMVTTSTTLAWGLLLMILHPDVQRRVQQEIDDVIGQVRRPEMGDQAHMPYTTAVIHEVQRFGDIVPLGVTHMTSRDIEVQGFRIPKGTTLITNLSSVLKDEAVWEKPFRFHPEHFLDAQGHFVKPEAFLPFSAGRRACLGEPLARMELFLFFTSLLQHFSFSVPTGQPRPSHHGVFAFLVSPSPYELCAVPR

[9] = target: FAD-linked sulfhydryl oxidase ALR (Homo sapiens, UniProt P55789); assay: ALR-catalysed DTT oxidation blockers – biochemical, H2O2 detection, luminescence, cherry-pick, dose response (AID 493248)
Chain of FAD-linked sulfhydryl oxidase ALR (P55789 whole entry): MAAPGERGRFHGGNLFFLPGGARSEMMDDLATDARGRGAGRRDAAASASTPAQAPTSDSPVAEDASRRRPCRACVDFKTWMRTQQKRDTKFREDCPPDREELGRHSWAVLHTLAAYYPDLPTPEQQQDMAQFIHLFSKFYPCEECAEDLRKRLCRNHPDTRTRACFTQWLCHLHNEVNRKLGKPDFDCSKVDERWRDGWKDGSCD

Vero [10] = assay: cells; format: functional, cell-based; details: Chlorocebus sabaeus
Cytochrome P450 1A2 = target: T4, Cytochrome P450 1A2 (Homo sapiens, UniProt P05177);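 also: PubChem cytochrome P450 panel assay, CYP1A2 panel member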
T4 sequence (P05177 whole entry): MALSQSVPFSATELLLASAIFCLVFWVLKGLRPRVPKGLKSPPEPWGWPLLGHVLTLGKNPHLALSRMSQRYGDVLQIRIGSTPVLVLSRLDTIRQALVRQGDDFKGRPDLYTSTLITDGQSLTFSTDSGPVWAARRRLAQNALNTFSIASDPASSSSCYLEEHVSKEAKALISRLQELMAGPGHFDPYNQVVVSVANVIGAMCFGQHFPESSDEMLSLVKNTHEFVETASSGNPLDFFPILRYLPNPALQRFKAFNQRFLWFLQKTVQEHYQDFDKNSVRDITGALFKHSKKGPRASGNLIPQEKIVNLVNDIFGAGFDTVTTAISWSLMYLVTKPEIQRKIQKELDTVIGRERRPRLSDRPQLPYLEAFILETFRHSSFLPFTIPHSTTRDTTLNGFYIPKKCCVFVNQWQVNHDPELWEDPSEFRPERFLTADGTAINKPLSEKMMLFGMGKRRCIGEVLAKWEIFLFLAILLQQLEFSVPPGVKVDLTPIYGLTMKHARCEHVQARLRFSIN

[11] = target: T5, Calpain-2 catalytic subunit (Sus scrofa, UniProt P43367); assay: m-calpain protease blockers, concentration series – biochemical, fluorogenic peptide substrate, dose response (AID 1420); format: functional
T5 sequence (P43367 whole entry): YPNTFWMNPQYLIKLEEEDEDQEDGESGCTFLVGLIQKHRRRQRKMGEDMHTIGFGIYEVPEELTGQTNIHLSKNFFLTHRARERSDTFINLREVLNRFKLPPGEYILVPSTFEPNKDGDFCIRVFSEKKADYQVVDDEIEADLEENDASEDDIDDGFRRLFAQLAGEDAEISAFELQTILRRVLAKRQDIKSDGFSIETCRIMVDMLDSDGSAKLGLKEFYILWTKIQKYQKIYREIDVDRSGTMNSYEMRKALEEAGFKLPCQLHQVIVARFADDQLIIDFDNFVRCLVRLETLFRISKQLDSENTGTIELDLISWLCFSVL

[12] = Luminescence Cell-Based Dose Confirmation HTS to Identify Activators of 5'UTR Stem-Loop Driven Alpha-Synuclein mRNA Translation in H4 Neuroglioblastoma Cells. [Related pubchem assays: 1829 (Project Summary), 1814 (Primary HTS)]; format: functional
H4 = assay: Luminescence Cell-Based Dose Response HTS to Identify Activators of 5'UTR Stem-Loop Driven Prion Protein mRNA Translation in H4 Neuroglioblastoma Cells. [Related pubchem assays: 1829 (Project Summary), 1814 (Primary HTS)]; format: functional; details: Homo sapiens
[13] = Luminescence Cell-Based Dose Response HTS to Identify Activators of Luciferase Translation or Activity in H4 […] Cells. [Related pubchem assays: 1829 (Project Summary), 1814 (Primary HTS)]; format: functional
[14] = viability loss of HPDE-C7K cells – cell-based, fluorescence, HTS, primary screen (AID 431); format: functional; details: Homo sapiens
Cytochrome P450 3A4 [15] = target: T3, Cytochrome P450 3A4; details: Potency
[16] = HPDE-C7 pancreatic duct cell viability loss – fluorescence, HTS (AID 430); format: functional, cell-based; details: Homo sapiens
Cytochrome P450 2C9 = Cytochrome P450 2C9 (Homo sapiens, UniProt P11712); details: Potency
Chain of Cytochrome P450 2C9 (P11712 whole entry): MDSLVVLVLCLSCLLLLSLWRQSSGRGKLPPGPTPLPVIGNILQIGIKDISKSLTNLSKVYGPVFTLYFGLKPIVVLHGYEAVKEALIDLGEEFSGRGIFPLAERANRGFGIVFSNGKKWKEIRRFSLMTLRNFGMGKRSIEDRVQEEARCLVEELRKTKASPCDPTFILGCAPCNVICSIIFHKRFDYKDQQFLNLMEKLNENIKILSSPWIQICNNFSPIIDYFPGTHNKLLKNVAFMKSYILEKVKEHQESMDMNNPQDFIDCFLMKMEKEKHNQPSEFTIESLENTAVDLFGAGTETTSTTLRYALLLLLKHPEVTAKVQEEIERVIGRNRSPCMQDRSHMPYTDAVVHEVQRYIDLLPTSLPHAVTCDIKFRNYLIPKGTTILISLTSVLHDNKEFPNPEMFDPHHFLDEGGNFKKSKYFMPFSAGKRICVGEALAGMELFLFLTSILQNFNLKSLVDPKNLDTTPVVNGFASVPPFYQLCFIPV

[17] = Luminescence Cell-Based Dose Retest to Confirm Inhibitors of Cancer Stem Cells. [Related pubchem assays (depositor defined):AID2717, AID2721]; format: functional; details: Homo sapiens
[18] = target: T6, Ubiquitin-conjugating enzyme E2 N (Homo sapiens, UniProt P61088); format: functional;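 also: Dose-response confirmation in a TR-FRET assay detecting UBC13-driven polyubiquitin chain formation, inhibition measured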
T6 sequence (P61088 whole entry): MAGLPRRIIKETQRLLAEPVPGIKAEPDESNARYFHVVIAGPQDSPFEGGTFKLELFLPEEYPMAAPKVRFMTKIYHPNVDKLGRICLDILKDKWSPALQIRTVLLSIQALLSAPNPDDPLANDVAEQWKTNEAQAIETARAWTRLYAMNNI

O=C(COC(=O)c1ccc(O)cc1)NCCCc1ccccc1
IC50 (Coagulation factor XII): > 50 µM (inactive) | IC50 (Prothrombin): > 50 µM (not active)

COc1cc(NS(=O)(=O)c2ccc3ccccc3c2)c2ncccc2c1
EC50 [1]: > 160 µM (inactive) | EC50 [2]: 1.09 µM (active) | EC50 (Streptococcus): 7.28 µM (active) | EC50 [3]: 0.668 µM (active) | EC50 [4]: 0.342 µM (active) | CC50 (Vero [5]): > 25 µM (active) | EC50 [6]: 3.98 µM (active) | EC50 [7]: 0.412 µM (active) | IC50 (H9c2): > 79 µM (inactive)

CCCc1nnc(NC(=O)CCC(=O)N2CCN(c3ccccn3)CC2)s1
AC50 (Cytochrome P450 3A4 [8]): inconclusive

CC(C)C(NC(=O)c1ccc(C(C)(C)C)cc1)C(=O)NCC(c1ccccc1)N(C)C (configuration not stated)
EC50 [3]: 0.168 µM (active)

Cc1onc(-c2c(F)cccc2Cl)c1C(=O)N(C)CC(=O)Nc1cccc(F)c1
EC50 [3]: 2.11 µM (active)

COc1ccc(NC2CCCN(C(=O)c3cccc(C(F)(F)F)c3)C2)cc1OC (configuration not stated)
IC50 (Large T antigen): 44.1 µM (active)

N=C(NOC(=O)c1ccc(Cl)c([N+](=O)[O-])c1)c1ccccn1
IC50 (Coagulation factor XII): > 50 µM (inactive)

COc1ccc(-c2nc3cnc(N4CCN(C)CC4)nc3n(CCc3ccccc3)c2=O)cc1
AC50 (Cytochrome P450 3A4 [8]): inconclusive | AC50 (Cytochrome P450 2D6): 25.1 µM (inconclusive)

N#Cc1ccsc1NC(=O)CN1CCN(c2ccc(O)cc2)CC1
IC50 (Large T antigen): 6.44 µM (active)

CCN(CC)c1ccc(N/C=C2/C(=O)NC(=O)N(c3ccccc3C)C2=O)cc1
AC50 [9]: 1.46 µM (active) | IC50 (Large T antigen): > 100 µM (active)

O=C(c1cccc(S(=O)(=O)N2CCc3ccccc32)c1)N1CCN(c2ccccn2)CC1
CC50 (Vero [5]): 18.9 µM (active) | IC50 (Vero [10]): 6.82 µM (active)

COc1cc(C(=O)N2CCN(C(=O)c3ccccc3)CC2)cc(OC)c1OC
AC50 (Cytochrome P450 3A4 [8]): inconclusive | AC50 (Cytochrome P450 1A2): 2.51 µM (inconclusive)

N#Cc1ccc(C(=O)Nc2ccc(N3CCN(C(=O)c4ccco4)CC3)cc2)c(F)c1
AC50 (Cytochrome P450 3A4 [8]): inconclusive

Cc1cc(C)nc(N=C(N)N(Cc2ccccc2)Cc2ccccc2)n1
EC50 [3]: 1.5 µM (active) | IC50 [11]: > 50 µM (not active)

COc1ccc(S(=O)(=O)N2CCCC2C(=O)Nn2cnnc2)cc1 (configuration not stated)
IC50 (Coagulation factor XII): > 50 µM (inactive)

C/C(N)=C(/C#N)C(=O)COC(=O)CC12CC3CC(CC(C3)C1)C2
EC50 [3]: 1.5 µM (active) | IC50 [11]: 12 µM (not active)

CCOC(=O)/C(C#N)=C/N=c1/ccc(C)cn1C
IC50 (Coagulation factor XII): > 50 µM (inconclusive) | EC50 [12]: 53.5 µM (active) | EC50 (H4): > 120 µM (not active) | EC50 [13]: 23.8 µM (active)

C/C(=N/OCO/N=C(\C)c1ccccc1)c1ccccc1
IC50 (Vero [10]): > 25 µM (active)

Cc1nc2sccn2c(=O)c1CCN1CCC(=C(c2ccc(F)cc2)c2ccc(F)cc2)CC1 [RITANSERIN]
EC50 [14]: > 20 µM (not active) | AC50 (Cytochrome P450 3A4 [15]): 20 µM (inconclusive) | EC50 [16]: > 20 µM (not active) | AC50 (Cytochrome P450 2C9): 25.1 µM (inconclusive) | AC50 [17]: 6.23 µM (active) | IC50 [18]: > 20 µM (inactive)
